Source: the NIST ThermoML archive (doi:10.1016/j.jct.2015.07.014)

Assay: xn = mol fraction of the nth substance listed
Details: Fluid (supercritical or subcritical phases), Buoyancy - hydrostatic balance with magnetic suspension - one sinker

[Ar] [argon] + O=C=O
Details	mass density [kg/m3]
298.12 K, 30871 kPa, x1 = 0.99	502.471
298.17 K, 30944 kPa, x1 = 0.95	514.698
298.18 K, 28957 kPa, x1 = 0.99	476.725
298.19 K, 10975 kPa, x1 = 0.99	187.045
298.19 K, 12973 kPa, x1 = 0.99	222.038
298.19 K, 14969 kPa, x1 = 0.99	256.759
298.19 K, 16969 kPa, x1 = 0.99	291.075
298.19 K, 18969 kPa, x1 = 0.99	324.674
298.19 K, 26962 kPa, x1 = 0.99	448.747
298.2 K, 20967 kPa, x1 = 0.99	357.351
298.2 K, 22966 kPa, x1 = 0.99	389.003
298.2 K, 24964 kPa, x1 = 0.99	419.491
298.22 K, 10976 kPa, x1 = 0.95	190.182
298.23 K, 12976 kPa, x1 = 0.95	226.201
298.23 K, 14974 kPa, x1 = 0.95	261.987
298.23 K, 16969 kPa, x1 = 0.95	297.274
298.23 K, 18970 kPa, x1 = 0.95	331.923
298.23 K, 20969 kPa, x1 = 0.95	365.576
298.23 K, 22968 kPa, x1 = 0.95	398.09
298.23 K, 24967 kPa, x1 = 0.95	429.349
298.23 K, 26965 kPa, x1 = 0.95	459.226
298.23 K, 28963 kPa, x1 = 0.95	487.701
323.2 K, 10978 kPa, x1 = 0.99	168.714
323.2 K, 24965 kPa, x1 = 0.99	375.34
323.2 K, 30955 kPa, x1 = 0.99	452.317
323.21 K, 14970 kPa, x1 = 0.99	230.302
323.21 K, 16971 kPa, x1 = 0.99	260.652
323.21 K, 18969 kPa, x1 = 0.99	290.39
323.21 K, 20969 kPa, x1 = 0.99	319.49
323.21 K, 22966 kPa, x1 = 0.99	347.807
323.21 K, 26962 kPa, x1 = 0.99	401.924
323.21 K, 28960 kPa, x1 = 0.99	427.589
323.22 K, 12973 kPa, x1 = 0.99	199.627
323.24 K, 24968 kPa, x1 = 0.95	382.594
323.24 K, 30958 kPa, x1 = 0.95	460.997
323.25 K, 16970 kPa, x1 = 0.95	265.1
323.25 K, 22969 kPa, x1 = 0.95	354.46
323.25 K, 28963 kPa, x1 = 0.95	435.856
323.26 K, 10976 kPa, x1 = 0.95	170.993
323.26 K, 12974 kPa, x1 = 0.95	202.641
323.26 K, 14973 kPa, x1 = 0.95	234.077
323.27 K, 18969 kPa, x1 = 0.95	295.579
323.27 K, 20973 kPa, x1 = 0.95	325.456
323.27 K, 26965 kPa, x1 = 0.95	409.68
348.21 K, 14972 kPa, x1 = 0.99	209.619
348.21 K, 16970 kPa, x1 = 0.99	236.897
348.21 K, 18972 kPa, x1 = 0.99	263.764
348.22 K, 20972 kPa, x1 = 0.99	290.057
348.22 K, 30956 kPa, x1 = 0.99	411.615
348.23 K, 28960 kPa, x1 = 0.99	388.704
348.24 K, 26963 kPa, x1 = 0.99	365.062
348.25 K, 10977 kPa, x1 = 0.99	154.064
348.25 K, 12974 kPa, x1 = 0.99	181.967
348.25 K, 24966 kPa, x1 = 0.99	340.708
348.25 K, 30958 kPa, x1 = 0.95	418.385
348.26 K, 22968 kPa, x1 = 0.99	315.675
348.28 K, 18972 kPa, x1 = 0.95	267.685
348.28 K, 20972 kPa, x1 = 0.95	294.53
348.28 K, 28962 kPa, x1 = 0.95	395.094
348.29 K, 22970 kPa, x1 = 0.95	320.729
348.29 K, 26966 kPa, x1 = 0.95	371.043
348.3 K, 10979 kPa, x1 = 0.95	155.9
348.3 K, 12976 kPa, x1 = 0.95	184.3
348.3 K, 14972 kPa, x1 = 0.95	212.437
348.3 K, 16971 kPa, x1 = 0.95	240.266
348.31 K, 24969 kPa, x1 = 0.95	346.237
373.22 K, 16970 kPa, x1 = 0.99	217.712
373.22 K, 18968 kPa, x1 = 0.99	242.204
373.22 K, 30957 kPa, x1 = 0.99	378.472
373.23 K, 22970 kPa, x1 = 0.99	289.853
373.23 K, 24965 kPa, x1 = 0.99	312.835
373.23 K, 26964 kPa, x1 = 0.99	335.305
373.24 K, 10977 kPa, x1 = 0.95	143.58
373.24 K, 14972 kPa, x1 = 0.99	192.822
373.24 K, 20969 kPa, x1 = 0.99	266.255
373.24 K, 28960 kPa, x1 = 0.99	357.169
373.25 K, 10978 kPa, x1 = 0.99	142.11
373.25 K, 12977 kPa, x1 = 0.99	167.627
373.28 K, 18969 kPa, x1 = 0.95	245.312
373.29 K, 16972 kPa, x1 = 0.95	220.418
373.29 K, 28963 kPa, x1 = 0.95	362.242
373.29 K, 30959 kPa, x1 = 0.95	383.847
373.3 K, 12975 kPa, x1 = 0.95	169.447
373.31 K, 14971 kPa, x1 = 0.95	195.043
373.31 K, 20969 kPa, x1 = 0.95	269.779
373.31 K, 26966 kPa, x1 = 0.95	340.003
373.32 K, 22966 kPa, x1 = 0.95	293.716
373.32 K, 24968 kPa, x1 = 0.95	317.167
398.26 K, 12977 kPa, x1 = 0.99	155.613
398.28 K, 10979 kPa, x1 = 0.99	132.065
398.28 K, 20968 kPa, x1 = 0.99	246.59
398.28 K, 30957 kPa, x1 = 0.99	350.842
398.29 K, 26962 kPa, x1 = 0.99	310.557
398.29 K, 28962 kPa, x1 = 0.99	330.96
398.3 K, 14970 kPa, x1 = 0.99	178.803
398.3 K, 18971 kPa, x1 = 0.99	224.388
398.3 K, 22969 kPa, x1 = 0.99	268.392
398.3 K, 24967 kPa, x1 = 0.99	289.714
398.31 K, 16969 kPa, x1 = 0.99	201.75
398.31 K, 26966 kPa, x1 = 0.95	314.455
398.31 K, 28963 kPa, x1 = 0.95	335.112
398.33 K, 14977 kPa, x1 = 0.95	180.735
398.33 K, 24965 kPa, x1 = 0.95	293.233
398.33 K, 30959 kPa, x1 = 0.95	355.238
398.34 K, 22971 kPa, x1 = 0.95	271.617
398.35 K, 18973 kPa, x1 = 0.95	226.932
398.35 K, 20972 kPa, x1 = 0.95	249.488
398.36 K, 12973 kPa, x1 = 0.95	157.068
398.36 K, 16970 kPa, x1 = 0.95	203.95
398.37 K, 10980 kPa, x1 = 0.95	133.275
423.22 K, 10980 kPa, x1 = 0.99	123.515
423.22 K, 16967 kPa, x1 = 0.99	188.325
423.23 K, 14969 kPa, x1 = 0.99	166.982
423.24 K, 12971 kPa, x1 = 0.99	145.339
423.28 K, 18967 kPa, x1 = 0.99	209.329
423.3 K, 20973 kPa, x1 = 0.99	230.071
423.3 K, 22965 kPa, x1 = 0.99	250.298
423.3 K, 30956 kPa, x1 = 0.99	327.48
423.31 K, 12974 kPa, x1 = 0.95	146.65
423.32 K, 24968 kPa, x1 = 0.95	273.195
423.33 K, 10981 kPa, x1 = 0.95	124.535
423.33 K, 14975 kPa, x1 = 0.95	168.571
423.33 K, 24964 kPa, x1 = 0.99	270.201
423.33 K, 26968 kPa, x1 = 0.95	292.962
423.33 K, 28959 kPa, x1 = 0.99	308.785
423.34 K, 18970 kPa, x1 = 0.95	211.466
423.34 K, 26961 kPa, x1 = 0.99	289.685
423.34 K, 28966 kPa, x1 = 0.95	312.296
423.35 K, 16970 kPa, x1 = 0.95	190.146
423.35 K, 20971 kPa, x1 = 0.95	232.422
423.35 K, 30960 kPa, x1 = 0.95	331.165
423.36 K, 22968 kPa, x1 = 0.95	252.983
